A value given as a limit tells only on which side of the number the result lay.

T1 sequence (P27448 whole entry, species assumed): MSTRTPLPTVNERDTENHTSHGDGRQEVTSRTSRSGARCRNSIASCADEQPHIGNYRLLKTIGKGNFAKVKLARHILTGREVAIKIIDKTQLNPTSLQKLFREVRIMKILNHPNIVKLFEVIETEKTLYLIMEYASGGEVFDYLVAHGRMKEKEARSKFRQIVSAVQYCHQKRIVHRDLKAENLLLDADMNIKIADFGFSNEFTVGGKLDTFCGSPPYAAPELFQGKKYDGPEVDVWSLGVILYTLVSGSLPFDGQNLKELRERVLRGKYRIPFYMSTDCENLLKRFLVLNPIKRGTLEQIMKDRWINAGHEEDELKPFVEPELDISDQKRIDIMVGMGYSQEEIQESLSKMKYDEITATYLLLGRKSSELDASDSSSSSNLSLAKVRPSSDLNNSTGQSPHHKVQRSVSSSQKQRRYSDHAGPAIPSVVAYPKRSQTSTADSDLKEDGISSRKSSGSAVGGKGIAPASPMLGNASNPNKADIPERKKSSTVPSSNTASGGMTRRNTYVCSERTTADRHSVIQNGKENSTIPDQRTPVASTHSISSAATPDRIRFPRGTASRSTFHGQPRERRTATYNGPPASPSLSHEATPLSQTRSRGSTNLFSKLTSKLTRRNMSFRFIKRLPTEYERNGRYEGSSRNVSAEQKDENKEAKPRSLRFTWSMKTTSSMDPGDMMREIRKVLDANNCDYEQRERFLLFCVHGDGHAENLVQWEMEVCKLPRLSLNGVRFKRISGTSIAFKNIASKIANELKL

This experiment addresses T1, recombinant MARK3 enzyme (Homo sapiens, UniProt P27448).
T1 construct: purchased University of Dundee
Nature of the experiment: MARK 3 Assay (HTRF, Cdc25C biotinylated peptide substrate). The format is biochemical. Conditions: 10 μM ATP, 2 hours at 25° C. Here is the method:
MARK3 activity was assayed in vitro using a Cdc25C biotinylated peptide substrate (Cell Signalling Technologies). The phosphopeptide product was quantitated using a Homogenous Time-Resolved Fluorescence (HTRF) assay system (Park et al., 1999, Anal. Biochem. 269:94-104). The reaction mixture contained 50 mM HEPES/Tris-HCl, pH 7.4; 10 mM NaCl, 5 mM MgCl2, 0.2 mM NaVO4, 5 mM β-glycerol phosphate, 0.1% Tween-20, 2 mM dithiothreitol, 0.1% BSA, 10 μM ATP, 1 μM peptide substrate, and 10 nM recombinant MARK3 enzyme (University of Dundee) in a final volume of 12 μl. The buffer additionally contained protease inhibitor cocktail (Roche EDTA-free, 1 tab per 50 ml). The kinase reaction was incubated for 2 hours at 25° C., and then terminated with 3 μl Stop/Detection Buffer (50 mM HEPES, pH 7.0, 16.6 mM EDTA, 0.5M KF, 0.1% Tween-20, 0.1% BSA, 2 μg/ml SLX^ent 665 (CISBIO), and 2 μg/ml Eu^3+ cryptate label antibody (CISBIO)). The reaction was allowed to equilibrate overnight at 0° C., and relative fluorescent units were read on an HTRF enabled plate reader (e.g. TECAN GENios Pro).
Inhibitor compounds were assayed in the reaction described above to determine compound IC50s. Aliquots of compound dissolved in DMSO were added to the reaction wells in a third-log dilution series covering a range of 1 nM to 10 μM. Relative phospho substrate formation, read as HTRF fluorescence units, was measured over the range of compound concentrations and a titration curve generated.
For orientation: TR-FRET usually uses a lanthanide donor and a delayed reading to cut background.
For the compound `Cn1cc(-c2cnc3c(-c4ccc(C(=O)N[C@@H]5CCCC[C@@H]5N)cc4)cnn3c2)cn1` (stereo in doubt) [Example 219, N-[2-aminocyclohexyl]-4-[6-(1-methyl-1H-pyrazol-4-yl)pyrazolo[1,5-a]pyrimidin-3-yl]benzamide], the 50% inhibitory concentration (IC50) (in general, the concentration that gives 50% inhibition) was 127 nM.
On to `O=C(NCC(F)(F)F)c1cc(-c2cnn3cc(-c4ccn(CCCN5CCC(F)(F)C5)c(=O)c4)cnc23)cs1` [Example 8, 4-(6-{1-[3-(3,3-difluoropyrrolidin-1-yl)propyl]-2-oxo-1,2-dihydropyridin-4-yl}pyrazolo[1,5-a]pyrimidin-3-yl)-N-(2,2,2-trifluoroethyl)thiophene-2-carboxamide], for which the IC50 came to 158 nM.
`CC(C)[C@@H](NC(=O)c1cc(-c2cnn3cc(-c4ccc(NCC(C)(C)O)nc4)cnc23)cs1)C(F)(F)F` [Example 49, 4-(6-{6-[(2-hydroxy-2-methylpropyl)amino]pyridin-3-yl}pyrazolo[1,5-a]pyrimidin-3-yl)-N-[(1R)-2-methyl-1-(trifluoromethyl)propyl]thiophene-2-carboxamide]: the half-maximal inhibitory concentration (IC50) worked out at 4 nM.
Turning to `O=C(NCC(F)(F)F)c1cc(-c2cnn3cc(-c4ccc(N5CCOCC5)nc4)cnc23)cs1` [Example 50, 4-[6-(6-morpholin-4-ylpyridin-3-yl)pyrazolo[1,5-a]pyrimidin-3-yl]-N-(2,2,2-trifluoroethyl)thiophene-2-carboxamide], the IC50 was 35 nM.
Turning to `O=C(NCc1nccs1)c1cc(-c2cnn3cc(-c4cccnc4)cnc23)cs1` [Example 184, 4-(6-pyridin-3-ylpyrazolo[1,5-a]pyrimidin-3-yl)-N-(1,3-thiazol-2-ylmethyl)thiophene-2-carboxamide], the half-maximal inhibitory concentration (IC50) was found to be 607 nM.
With `Cc1sc(C(=O)N[C@@H]2[C@H](N)CCCC2(F)F)cc1-c1cnn2cc(-c3cnn(C)c3)cnc12` [Example 202, N-[(1R,6R)-6-amino-2,2-difluorocyclohexyl]-5-methyl-4-[6-(1-methyl-1H-pyrazol-4-yl)pyrazolo[1,5-a]pyrimidin-3-yl]thiophene-2-] the figure was below 0.3 nM; with `Cn1cc(-c2cnc3c(-c4nc(C(=O)NCC(F)(F)F)sc4Cl)cnn3c2)cn1` [Example 205, 5-chloro-4-[6-(1-methyl-1H-pyrazol-4-yl)pyrazolo[1,5-a]pyrimidin-3-yl]-N-(2,2,2-trifluoroethyl)-1,3-thiazole-2-carboxamide], 60 nM.

The record behind these values is US8461162B2, “Pyrazolo[1,5-a]pyrimidine derivatives” (Merck Sharp & Dohme Corp., priority 2007, dated 2013).
